Structures can show the parent of a compound that is named as a salt. Marks after values point to notes of the source that are not given here.
Key:
Wistar rats [1] = assay: Shuttle box test: acquirement of conditioned avoidance responses (CARs); type: in vivo; details: for CARs: mean + ES; for effect on number of conditioned responses and percentage of learners (in words): young and elderly rats, PR 156 tested only on young rats
Protocol: (§1) Male young and elderly Wistar rats, weighing respectively […] and 580 g, were used.
(§2) The test compounds, dissolved in physiological saline, were administered orally to young and elderly animals, at doses of 5, lO and 20 mg/kg. Phosphoserine dissolved in physiological saline was administered at equimolecular doses (1.8, 3.6 and 7.2 mg/kg). The control animals were administered with the sole vehicle. The administrations were carried out once a day during 20 days, the last administration being effected 1 hour before the tests.
The following behavioral tests were carried out: • 1) Shuttle box test: to evaluate the acquirement of conditioned avoidance responses (CARs).

Wistar rats [2] = assay: Dark box test: effect on memory capability; type: in vivo; details: for LATENCY (seconds): averages; for effect on acquirement of avoidance responses (in words): summary of Table 2, young and elderly rats
Protocol: as §1, §2
2. Dark box test: to further evaluate the effect on memory capability of the animals.

elderly rats = assay: Despair test: antidepressant activity; type: in vivo, Wistar rats; details: for DURATION OF STILLNESS: Elderly rats, mean + SEM; for effect on stillness (in words): summary in text of Table 3, elderly rats
Protocol: as §1, §2
3. Despair test: to estimate the antidepressant activity on the elderly rats.

[3] = Young rats, 5 mg/kg orally once a day during 20 days, 5 mg/kg
[4] = Young rats, 10 mg/kg orally once a day during 20 days, 10 mg/kg
[5] = Elderly rats, 5 mg/kg orally once a day during 20 days
[6] = Elderly rats, 10 mg/kg orally once a day during 20 days
[7] = Elderly rats, 20 mg/kg orally once a day during 20 days
[8] = Young rats, 20 mg/kg orally once a day during 20 days
[9] = Elderly rats, 1.8 mg/kg orally once a day during 20 days
[10] = Elderly rats, 3.6 mg/kg orally once a day during 20 days
[11] = Elderly rats, 7.2 mg/kg orally once a day during 20 days
[12] = Young rats, 1.8 mg/kg orally once a day during 20 days
[13] = Young rats, 3.6 mg/kg orally once a day during 20 days
[14] = Young rats, 7.2 mg/kg orally once a day during 20 days

N[C@@H](COP(=O)(O)O)C(=O)O [PR 156, L-Phosphoserine salt with L-Arginine 1:2]
LEARNERS (%) (Wistar rats [1]; [3]): 100.0%
CARs (Wistar rats [1]; [3]): 23.4 + 1.9**
LEARNERS (%) (Wistar rats [1]; [4]): 100.0%
CARs (Wistar rats [1]; [4]): 24.0 + 1.8**
effect on number of conditioned responses and percentage of learners (in words) (Wistar rats [1]): proved also to be effective

N[C@@H](COP(=O)(O)O)C(=O)O [PR 157, L-Phosphoserine salt with L-Arginine and L-Lysine]
LEARNERS (%) (Wistar rats [1]; [5]): 25.0%
CARs (Wistar rats [1]; [5]): 7.9 + 0.3*
LEARNERS (%) (Wistar rats [1]; [6]): 50.0** %
CARs (Wistar rats [1]; [6]): 11.5 + 0.3*
LEARNERS (%) (Wistar rats [1]; [7]): 50.0** %
CARs (Wistar rats [1]; [7]): 18.6 + 0.4*
LEARNERS (%) (Wistar rats [1]; [3]): 50.0%
CARs (Wistar rats [1]; [3]): 19.4 + 0.4*
LEARNERS (%) (Wistar rats [1]; [4]): 75.0** %
CARs (Wistar rats [1]; [4]): 22.2 + 1.4*
LEARNERS (%) (Wistar rats [1]; [8]): 100.0** %
CARs (Wistar rats [1]; [8]): 24.4 + 1.4*
effect on number of conditioned responses and percentage of learners (in words) (Wistar rats [1]): caused an increase in the number of conditioned responses as well as in the percentage of learners, both in young and elderly animals
LATENCY (seconds) (Wistar rats [2]; [5]): (12) 46.0* seconds
LATENCY (seconds) (Wistar rats [2]; [6]): (12) 79.4* seconds
LATENCY (seconds) (Wistar rats [2]; [7]): (12) 82.0* seconds
LATENCY (seconds) (Wistar rats [2]; Young rats, 5 mg/kg orally once a day during 20 days): (12) 112.3* seconds
LATENCY (seconds) (Wistar rats [2]; Young rats, 10 mg/kg orally once a day during 20 days): (12) 161.5* seconds
LATENCY (seconds) (Wistar rats [2]; [8]): (12) 265.1* seconds
effect on acquirement of avoidance responses (in words) (Wistar rats [2]): caused a dose-related improvement in the acquirement of avoidance responses both in young and elderly animals
DURATION OF STILLNESS (elderly rats; 5 mg/kg orally once a day during 20 days): 280.2 + 20.3*
DURATION OF STILLNESS (elderly rats; 10 mg/kg orally once a day during 20 days): 263.1 + 33.4*
DURATION OF STILLNESS (elderly rats; 20 mg/kg orally once a day during 20 days): 236.7 + 28.9*
effect on stillness (in words) (elderly rats): showed a dose-related reduction in the stillness of the elderly rats

N[C@@H](COP(=O)(O)O)C(=O)O [Phosphoserine]
LEARNERS (%) (Wistar rats [1]; [9]): 25.0%
CARs (Wistar rats [1]; [9]): 5.9 + 0.4*
LEARNERS (%) (Wistar rats [1]; [10]): 37.5* %
CARs (Wistar rats [1]; [10]): 6.2 + 0.5*
LEARNERS (%) (Wistar rats [1]; [11]): 37.5** %
CARs (Wistar rats [1]; [11]): 9.2 + 0.6*
LEARNERS (%) (Wistar rats [1]; [12]): 50.0%
CARs (Wistar rats [1]; [12]): 16.1 + 0.5
LEARNERS (%) (Wistar rats [1]; [13]): 50.0%
CARs (Wistar rats [1]; [13]): 17.6 + 0.5
LEARNERS (%) (Wistar rats [1]; [14]): 75.0%
CARs (Wistar rats [1]; [14]): 17.2 + 0.6
effect on number of conditioned responses and percentage of learners (in words) (Wistar rats [1]): caused similar effects on the elderly animals only
LATENCY (seconds) (Wistar rats [2]; [9]): (12) 34.8 seconds
LATENCY (seconds) (Wistar rats [2]; [10]): (12) 50.7* seconds
LATENCY (seconds) (Wistar rats [2]; [11]): (12) 65.0* seconds
LATENCY (seconds) (Wistar rats [2]; [12]): (12) 97.5* seconds
LATENCY (seconds) (Wistar rats [2]; [13]): (12) 110.2* seconds
LATENCY (seconds) (Wistar rats [2]; [14]): (12) 186.0* seconds
effect on acquirement of avoidance responses (in words) (Wistar rats [2]): proved to be effective only on the elderly animals
DURATION OF STILLNESS (elderly rats; 1.8 mg/kg orally once a day during 20 days): 301.0 + 31.4*
DURATION OF STILLNESS (elderly rats; 3.6 mg/kg orally once a day during 20 days): 291.7 + 32.7*
DURATION OF STILLNESS (elderly rats; 7.2 mg/kg orally once a day during 20 days): 265.8 + 24.7*
effect on stillness (in words) (elderly rats): showed a dose-related reduction in the stillness of the elderly rats
